From the NIST ThermoML archive (doi:10.1007/s10765-012-1352-4)

Experiment: xn = mol fraction of the nth substance listed
Settings: Gas, Loschmidt diffusion cell combined with holoholographic interferometry

[Ne] [neon] + [Ar]
binary diffusion coefficient [m2/s]
Settings | 100 kPa | 200 kPa | 500 kPa | 1000 kPa
293.15 K, x2 = 0.1 | 3.14e-10 | 1.57e-10 | 6.34e-11 | 3.1e-11
293.15 K, x2 = 0.12 | 3.14e-10 | 1.57e-10 | 6.32e-11 | 3.1e-11
293.15 K, x2 = 0.14 | 3.13e-10 | 1.57e-10 | 6.31e-11 | 3.1e-11
293.15 K, x2 = 0.16 | 3.13e-10 | 1.57e-10 | 6.3e-11 | 3.09e-11
293.15 K, x2 = 0.18 | 3.12e-10 | 1.56e-10 | 6.29e-11 | 3.09e-11
293.15 K, x2 = 0.2 | 3.11e-10 | 1.56e-10 | 6.28e-11 | 3.08e-11
293.15 K, x2 = 0.22 | 3.11e-10 | 1.56e-10 | 6.27e-11 | 3.08e-11
293.15 K, x2 = 0.24 | 3.1e-10 | 1.56e-10 | 6.27e-11 | 3.07e-11
293.15 K, x2 = 0.26 | 3.1e-10 | 1.56e-10 | 6.26e-11 | 3.07e-11
293.15 K, x2 = 0.28 | 3.1e-10 | 1.56e-10 | 6.25e-11 | 3.06e-11
293.15 K, x2 = 0.3 | 3.09e-10 | 1.56e-10 | 6.24e-11 | 3.06e-11
293.15 K, x2 = 0.32 | 3.08e-10 | 1.55e-10 | 6.23e-11 | 3.05e-11
293.15 K, x2 = 0.34 | 3.08e-10 | 1.55e-10 | 6.22e-11 | 3.04e-11
293.15 K, x2 = 0.36 | 3.07e-10 | 1.55e-10 | 6.21e-11 | 3.03e-11
293.15 K, x2 = 0.38 | 3.08e-10 | 1.54e-10 | 6.2e-11 | 3.02e-11
293.15 K, x2 = 0.4 | 3.07e-10 | 1.54e-10 | 6.19e-11 | 3.01e-11
293.15 K, x2 = 0.6 | 3.1e-10 | 1.56e-10 | 6.31e-11 | 3.13e-11
293.15 K, x2 = 0.62 | 3.09e-10 | 1.56e-10 | 6.29e-11 | 3.13e-11
293.15 K, x2 = 0.64 | 3.09e-10 | 1.56e-10 | 6.28e-11 | 3.13e-11
293.15 K, x2 = 0.66 | 3.09e-10 | 1.56e-10 | 6.28e-11 | 3.12e-11
293.15 K, x2 = 0.68 | 3.09e-10 | 1.56e-10 | 6.28e-11 | 3.12e-11
293.15 K, x2 = 0.7 | 3.09e-10 | 1.56e-10 | 6.28e-11 | 3.12e-11
293.15 K, x2 = 0.72 | 3.1e-10 | 1.56e-10 | 6.28e-11 | 3.12e-11
293.15 K, x2 = 0.74 | 3.1e-10 | 1.56e-10 | 6.28e-11 | 3.12e-11
293.15 K, x2 = 0.76 | 3.1e-10 | 1.56e-10 | 6.28e-11 | 3.13e-11
293.15 K, x2 = 0.78 | 3.1e-10 | 1.57e-10 | 6.28e-11 | 3.13e-11
293.15 K, x2 = 0.8 | 3.1e-10 | 1.57e-10 | 6.28e-11 | 3.13e-11
293.15 K, x2 = 0.82 | 3.1e-10 | 1.57e-10 | 6.29e-11 | 3.13e-11
293.15 K, x2 = 0.84 | 3.11e-10 | 1.57e-10 | 6.29e-11 | 3.13e-11
293.15 K, x2 = 0.86 | 3.11e-10 | 1.57e-10 | 6.29e-11 | 3.13e-11
293.15 K, x2 = 0.88 | 3.11e-10 | 1.57e-10 | 6.3e-11 | 3.14e-11
293.15 K, x2 = 0.9 | 3.11e-10 | 1.57e-10 | 6.3e-11 | 3.14e-11
313.15 K, x2 = 0.1 | 3.56e-10 | 1.78e-10 | 7.02e-11 | 3.5e-11
313.15 K, x2 = 0.12 | 3.54e-10 | 1.77e-10 | 7e-11 | 3.49e-11
313.15 K, x2 = 0.14 | 3.53e-10 | 1.77e-10 | 6.99e-11 | 3.49e-11
313.15 K, x2 = 0.16 | 3.52e-10 | 1.77e-10 | 6.98e-11 | 3.48e-11
313.15 K, x2 = 0.18 | 3.52e-10 | 1.76e-10 | 6.97e-11 | 3.47e-11
313.15 K, x2 = 0.2 | 3.51e-10 | 1.76e-10 | 6.96e-11 | 3.47e-11
313.15 K, x2 = 0.22 | 3.51e-10 | 1.76e-10 | 6.95e-11 | 3.46e-11
313.15 K, x2 = 0.24 | 3.49e-10 | 1.75e-10 | 6.94e-11 | 3.45e-11
313.15 K, x2 = 0.26 | 3.49e-10 | 1.75e-10 | 6.92e-11 | 3.44e-11
313.15 K, x2 = 0.28 | 3.48e-10 | 1.75e-10 | 6.91e-11 | 3.44e-11
313.15 K, x2 = 0.3 | 3.47e-10 | 1.74e-10 | 6.89e-11 | 3.42e-11
313.15 K, x2 = 0.32 | 3.47e-10 | 1.74e-10 | 6.88e-11 | 3.41e-11
313.15 K, x2 = 0.34 | 3.46e-10 | 1.74e-10 | 6.86e-11 | 3.4e-11
313.15 K, x2 = 0.36 | 3.46e-10 | 1.74e-10 | 6.84e-11 | 3.39e-11
313.15 K, x2 = 0.38 | 3.45e-10 | 1.73e-10 | 6.82e-11 | 3.37e-11
313.15 K, x2 = 0.4 | 3.44e-10 | 1.73e-10 | 6.79e-11 | 3.35e-11
313.15 K, x2 = 0.6 | 3.52e-10 | 1.75e-10 | 7.09e-11 | 3.52e-11
313.15 K, x2 = 0.62 | 3.51e-10 | 1.75e-10 | 7.08e-11 | 3.51e-11
313.15 K, x2 = 0.64 | 3.51e-10 | 1.75e-10 | 7.07e-11 | 3.5e-11
313.15 K, x2 = 0.66 | 3.5e-10 | 1.75e-10 | 7.06e-11 | 3.5e-11
313.15 K, x2 = 0.68 | 3.5e-10 | 1.75e-10 | 7.06e-11 | 3.5e-11
313.15 K, x2 = 0.7 | 3.5e-10 | 1.75e-10 | 7.05e-11 | 3.5e-11
313.15 K, x2 = 0.72 | 3.5e-10 | 1.75e-10 | 7.05e-11 | 3.5e-11
313.15 K, x2 = 0.74 | 3.49e-10 | 1.75e-10 | 7.05e-11 | 3.5e-11
313.15 K, x2 = 0.76 | 3.49e-10 | 1.75e-10 | 7.06e-11 | 3.5e-11
313.15 K, x2 = 0.78 | 3.49e-10 | 1.75e-10 | 7.06e-11 | 3.5e-11
313.15 K, x2 = 0.8 | 3.49e-10 | 1.75e-10 | 7.06e-11 | 3.5e-11
313.15 K, x2 = 0.82 | 3.49e-10 | 1.75e-10 | 7.06e-11 | 3.5e-11
313.15 K, x2 = 0.84 | 3.49e-10 | 1.76e-10 | 7.07e-11 | 3.5e-11
313.15 K, x2 = 0.86 | 3.5e-10 | 1.76e-10 | 7.07e-11 | 3.5e-11
313.15 K, x2 = 0.88 | 3.51e-10 | 1.76e-10 | 7.07e-11 | 3.51e-11
313.15 K, x2 = 0.9 | 3.51e-10 | 1.76e-10 | 7.08e-11 | 3.51e-11
333.15 K, x2 = 0.1 | 3.99e-10 | 1.97e-10 | 7.82e-11 | 3.91e-11
333.15 K, x2 = 0.12 | 3.97e-10 | 1.97e-10 | 7.8e-11 | 3.9e-11
333.15 K, x2 = 0.14 | 3.95e-10 | 1.96e-10 | 7.79e-11 | 3.89e-11
333.15 K, x2 = 0.16 | 3.94e-10 | 1.96e-10 | 7.77e-11 | 3.88e-11
333.15 K, x2 = 0.18 | 3.93e-10 | 1.95e-10 | 7.76e-11 | 3.87e-11
333.15 K, x2 = 0.2 | 3.91e-10 | 1.95e-10 | 7.74e-11 | 3.86e-11
333.15 K, x2 = 0.22 | 3.91e-10 | 1.95e-10 | 7.72e-11 | 3.86e-11
333.15 K, x2 = 0.24 | 3.89e-10 | 1.94e-10 | 7.7e-11 | 3.85e-11
333.15 K, x2 = 0.26 | 3.89e-10 | 1.94e-10 | 7.69e-11 | 3.84e-11
333.15 K, x2 = 0.28 | 3.87e-10 | 1.93e-10 | 7.67e-11 | 3.83e-11
333.15 K, x2 = 0.3 | 3.86e-10 | 1.93e-10 | 7.65e-11 | 3.82e-11
333.15 K, x2 = 0.32 | 3.86e-10 | 1.93e-10 | 7.63e-11 | 3.81e-11
333.15 K, x2 = 0.34 | 3.84e-10 | 1.92e-10 | 7.6e-11 | 3.8e-11
333.15 K, x2 = 0.36 | 3.83e-10 | 1.91e-10 | 7.57e-11 | 3.79e-11
333.15 K, x2 = 0.38 | 3.83e-10 | 1.91e-10 | 7.53e-11 | 3.77e-11
333.15 K, x2 = 0.4 | 3.8e-10 | 1.9e-10 | 7.48e-11 | 3.75e-11
333.15 K, x2 = 0.6 | 3.87e-10 | 1.94e-10 | 7.82e-11 | 3.91e-11
333.15 K, x2 = 0.62 | 3.85e-10 | 1.94e-10 | 7.81e-11 | 3.91e-11
333.15 K, x2 = 0.64 | 3.84e-10 | 1.94e-10 | 7.8e-11 | 3.9e-11
333.15 K, x2 = 0.66 | 3.85e-10 | 1.94e-10 | 7.8e-11 | 3.9e-11
333.15 K, x2 = 0.68 | 3.85e-10 | 1.94e-10 | 7.79e-11 | 3.9e-11
333.15 K, x2 = 0.7 | 3.85e-10 | 1.94e-10 | 7.79e-11 | 3.89e-11
333.15 K, x2 = 0.72 | 3.86e-10 | 1.93e-10 | 7.79e-11 | 3.89e-11
333.15 K, x2 = 0.74 | 3.85e-10 | 1.94e-10 | 7.8e-11 | 3.89e-11
333.15 K, x2 = 0.76 | 3.86e-10 | 1.94e-10 | 7.8e-11 | 3.9e-11
333.15 K, x2 = 0.78 | 3.86e-10 | 1.94e-10 | 7.8e-11 | 3.9e-11
333.15 K, x2 = 0.8 | 3.86e-10 | 1.94e-10 | 7.8e-11 | 3.9e-11
333.15 K, x2 = 0.82 | 3.86e-10 | 1.94e-10 | 7.81e-11 | 3.9e-11
333.15 K, x2 = 0.84 | 3.86e-10 | 1.94e-10 | 7.81e-11 | 3.9e-11
333.15 K, x2 = 0.86 | 3.86e-10 | 1.94e-10 | 7.82e-11 | 3.9e-11
333.15 K, x2 = 0.88 | 3.86e-10 | 1.94e-10 | 7.82e-11 | 3.91e-11
333.15 K, x2 = 0.9 | 3.86e-10 | 1.94e-10 | 7.82e-11 | 3.91e-11
